IC50 data for 18 compounds are collected here from patent US20160229835A1, “NOVEL PYRIDYLOXYACETYL TETRAHYDROISOQUINOLINE COMPOUNDS USEFUL AS NAMPT INHIBITORS” (ELI LILLY AND COMPANY, priority 2013, published 2016).

In assay [1] the test system is NAMPT-mediated NAD+/NMN formation in A2780 tumor cells. The experiment in a line: Assay for NAD+/NMN Levels in A2780 Cells. In kind it is cell-based. The settings on record: Homo sapiens, A2780, 24 h, 24 hours treatment, averaged. Here is the method: A2780 (the NCI-DCTD Tumor repository) tumor cells, an ovarian cancer cell line, are cultured in RPMI 1640 (SH30255.01, Hyclone) supplemented with 10% FBS. […] FK866 (100 nM) is also included as a positive control for maximum inhibition (100%). Each compound is tested 1-4 times in this assay.
To assess NAD^+/NMN levels in the cell, A2780 cells grown in the above referenced 96-well plates are lysed with RIPA buffer (Pierce) followed by addition of 50 μL of 0.2 N HCl. The resulting cell lysates are incubated at 60° C. for 10 minutes and neutralized with 50 μL of 0.2 N NaOH. After centrifugation at 2000×g for 15 minutes, the supernatants (50 μL) are collected. The NAD^+/NMN assays are described by Putt and Hergenrother (Putt, K. S, and Hergenrother, P. J., An enzymatic assay for poly(ADP-ribose) polymerase-1 (PARP-1) via the chemical quantitation of NAD^+: application to the high-throughput screening of small molecules as potential inhibitors. Analytical Biochemistry, 2004, 326, 78-86) with modifications. The resulting lysates are mixed with 20 μL of 0.2 N KOH and 20 μL of 20% acetophenone, and incubated at 90° C. for 10 minutes followed by addition of 90 μL of formic acid. After incubation at 90° C. for 10 minutes, the resulting preparations are measured for their fluorescence at the excitation and emission wavelength of 360 and 450 nm, respectively as described by Putt and Hergenrother (2004).

The subject of the next assay is A2780 cells. The experiment in a line: A2780 Proliferation Assay ±NAM (Nicotinamide). In kind it is cell-based. As to conditions: Homo sapiens, A2780, 72 h, absence of NAM, read-out: IC50 (proliferation of A2780 cells in the absence of NAM). As for the experimental part: The purpose of this assay is to measure the ability of a compound to inhibit proliferation of A2780 cells (the NCI-DCTD Tumor repository) dependent on the NAMPT-mediated NAD^+ formation in the presence or absence of higher concentrations of NAM (10 mM) in vitro. The A2780 cell proliferation assay uses assay-ready frozen cells. To prepare assay-ready frozen A2780 cells, A2780 cells, an ovarian cancer cell line, are cultured in growth media containing RPMI 1640 (Gibco 30-2001) supplemented with 10% FBS, in T-150 flasks for 3-4 days. Cells are then treated with 4 mL of 0.25% (v/v) trypsin for 1 minute (Hyclone SH30042). Trypsin-treated cells are then diluted with 10 mL of growth media, and the cell slurry is gently mixed and then decanted to a centrifuge tube. Cells are counted and then pelleted by centrifugation at 1400 rpm for 5 minutes. After centrifugation the supernatant is removed and the cell pellets are re-suspended in GIBCO® RECOVERY™ Cell Culture Freezing Medium (Invitrogen 12648-010) at 2-5×10^6 cells/mL and then aliquoted at 1 mL volumes into cryovials. Cryovials are stored initially at −80° C. for 16 hours, and then transferred to liquid nitrogen for long term storage.
One day before the planned initiation of compound treatment portion of the assay, one vial of assay ready frozen cells is thawed, and the cells are washed with 50 mL of growth medium. Cells are counted and then diluted to 2.8×10^4 cells/mL and then plated at a rate of 2500 cells/well (90 μL per well) to BD Poly-D-Lysine, 96 well black plates (BD Biocoat 35-4640). Plates are then covered and incubated overnight under 5% CO2 at 37° C. The next day in a separate plate (V bottom Nunc 249946), a ten-point compound dilution series for each compound is prepared in growth media containing 2% DMSO (v/v, 0.2% final) with or without 100 mM NAM (10 mM final). Then 10 μL of compounds after a ten-point series dilution from either 2 or 0.1 μM (depending potency of each compound) to 50 pM or 5 pM (final) are added to the wells of the cell plates. Cell plates are covered and incubated for 72 hours under 5% CO2 at 37° C.
On the day of the viability assessment, one vial of GF-AFC substrate (CELL TITER-FLUOR™ Cell Viability Assay Kit, Promega G6081) is vortexed and the substrate is transferred to one vial of thawed CELL TITER-FLUOR™ Assay Buffer. The resulting CELL TITER-FLUOR™ reagent is then vortexed well to thoroughly dissolve the substrate. The CELL TITER-FLUOR™ reagent is then diluted (1:2) in growth medium and 50 μL of diluted CELL TITER-FLUOR™ reagent is added to each well of the cell plate. The cell plate is covered and incubated under 5% CO2 at 37° C. for 1-3 hours. Finally the cell plates are removed from the incubator and the well fluorescence is measured on an Envision® Multilabel Reader (Perkin Elmer, λeX 355/λem 495). Fluorescence from compound treated wells is compared to the no cell and no compound treatment control wells to calculate percent inhibition. The percent inhibition and ten-point compound concentration data is fit to a four-parameter logistic equation using ACTIVITYBASE 4.0 Equation 205. Each compound is tested 2-4 times in this assay.

As to `O=C(CC1CCCCO1)Nc1ccc2c(c1)CCN(C(=O)COc1cccnc1)C2` (single isomer, unassigned; isomer 2) [Example 13, N-[2-[2-(3-Pyridyloxy)acetyl]-3,4-dihydro-1H-isoquinolin-6-yl]-2-tetrahydropyran-2-yl-acetamide (isomer 2)], the results for the IC50 (in assay [1]; in the assay on A2780 cells) were at most 195 nM and under 677 nM, respectively.

As to `CC(c1ccc2c(c1)CCN(C(=O)COc1cccnc1)C2)N1CCN(C(=O)C2CCOCC2)CC1` (single isomer, unassigned; isomer 2) [Example 20, 2-(3-Pyridyloxy)-1-[6-[1-[4-(tetrahydropyran-4-carbonyl)piperazin-1-yl]ethyl]-3,4-dihydro-1H-isoquinolin-2-yl]ethanone (isomer 2)], the figures for the IC50 (in assay [1]; in the assay with A2780 cells) were at most 195 nM and under 677 nM, respectively.

Regarding `O=C(COc1cccnc1)N1CCc2cc(NS(=O)(=O)c3ccccn3)ccc2C1` [Example 3, N-{2-[(Pyridin-3-yloxy)acetyl]-1,2,3,4-tetrahydroisoquinolin-6-yl}pyridine-2-sulfonamide], the values for the IC50 (in assay [1]; with A2780 cells) were at most 195 nM and under 677 nM, respectively.

As for `O=C(COc1cccnc1)N1CCc2cc(NS(=O)(=O)C3CCOCC3)ccc2C1` [Example 4, N-{2-[(Pyridin-3-yloxy)acetyl]-1,2,3,4-tetrahydroisoquinolin-6-yl}tetrahydro-2H-pyran-4-sulfonamide], the IC50 in assay [1] was at most 195 nM; with A2780 cells, under 677 nM.

With `O=C(COc1cccnc1)N1CCc2cc(NS(=O)(=O)CCC(F)(F)F)ccc2C1` [Example 5, 3,3,3-Trifluoro-N-{2-[(pyridin-3-yloxy)acetyl]-1,2,3,4-tetrahydroisoquinolin-6-yl}propane-1-sulfonamide], the IC50 in assay [1] is at most 195 nM; with A2780 cells, under 677 nM.

Turning to `O=C(COc1cccnc1)N1CCc2cc(NS(=O)(=O)CC3CC3)ccc2C1` [Example 6, 1-Cyclopropyl-N-{2-[(pyridin-3-yloxy)acetyl]-1,2,3,4-tetrahydroisoquinolin-6-yl}methanesulfonamide], the IC50 in assay [1] is at most 195 nM; in the assay on A2780 cells, under 677 nM.

For `CC(C)OCCS(=O)(=O)Nc1ccc2c(c1)CCN(C(=O)COc1cccnc1)C2` [Example 7, 2-Isopropoxy-N-[2-[2-(3-pyridyloxy)acetyl]-3,4-dihydro-1H-isoquinolin-6-yl]ethanesulfonamide], the results for the IC50 (in assay [1]; with A2780 cells) were at most 195 nM and under 677 nM, respectively.

With `O=C(COc1cccnc1)N1CCc2cc(NS(=O)(=O)C3CCN(C4COC4)CC3)ccc2C1` [Example 8, 1-(Oxetan-3-yl)-N-[2-[2-(3-pyridyloxy)acetyl]-3,4-dihydro-1H-isoquinolin-6-yl]piperidine-4-sulfonamide], the IC50 in assay [1] is at most 195 nM; with A2780 cells it was under 677 nM.

Turning to `CN1CCC(S(=O)(=O)Nc2ccc3c(c2)CCN(C(=O)COc2cccnc2)C3)CC1` [Example 9, 1-Methyl-N-{2-[(pyridin-3-yloxy)acetyl]-1,2,3,4-tetrahydroisoquinolin-6-yl}piperidine-4-sulfonamide], the IC50 in assay [1] was at most 195 nM; in the assay on A2780 cells, under 677 nM.

With `O=C(COc1cccnc1)N1CCc2cc(NS(=O)(=O)C3CCN(C(=O)C4CCOCC4)CC3)ccc2C1` [Example 10, N-[2-[2-(3-Pyridyloxy)acetyl]-3,4-dihydro-1H-isoquinolin-6-yl]-1-(tetrahydropyran-4-carbonyl)piperidine-4-sulfonamide], the IC50 in assay [1] is at most 195 nM; in the assay with A2780 cells it was under 677 nM.

As for `CCC(C)(O)CC(=O)Nc1ccc2c(c1)CCN(C(=O)COc1cccnc1)C2` (stereo not drawn) [Example 11, 3-Hydroxy-3-methyl-N-[2-[2-(3-pyridyloxy)acetyl]-3,4-dihydro-1H-isoquinolin-6-yl]pentanamide], the IC50 in assay [1] was at most 195 nM; in the assay on A2780 cells, under 677 nM.

With `CC(O)(CC(=O)Nc1ccc2c(c1)CCN(C(=O)COc1cccnc1)C2)C(F)(F)F` (stereo not drawn) [Example 12, 4,4,4-Trifluoro-3-hydroxy-3-methyl-N-[2-[2-(3-pyridyloxy)acetyl]-3,4-dihydro-1H-isoquinlin-6-yl]butanamide], the results for the IC50 (in assay [1]; with A2780 cells) were at most 195 nM and under 677 nM, respectively.

`CC(C)(C)CC(=O)Nc1ccc2c(c1)CCN(C(=O)COc1cccnc1)C2` [Example 14, 3,3-Dimethyl-N-{2-[(pyridin-3-yloxy)acetyl]-1,2,3,4-tetrahydroisoquinolin-6-yl}butanamide]: the results for the IC50 (in assay [1]; with A2780 cells) were at most 195 nM and under 677 nM, respectively.

Regarding `CC(C)(O)CC(=O)Nc1ccc2c(c1)CCN(C(=O)COc1cccnc1)C2` [Example 15, 3-Hydroxy-3-methyl-N-{2-[(pyridin-3-yloxy)acetyl]-1,2,3,4-tetrahydroisoquinolin-6-yl}butanamide], the IC50 is at most 195 nM in assay [1] and under 677 nM with A2780 cells.

As for `O=C(COc1cccnc1)N1CCc2cc(CN3CCN(C(=O)C4CCOCC4)CC3)ccc2C1` [Example 16, 2-(Pyridin-3-yloxy)-1-[6-{[4-(tetrahydro-2H-pyran-4-ylcarbonyl)piperazin-1-yl]methyl}-3,4-dihydroisoquinolin-2(1H)-yl]ethanone], the IC50 in assay [1] is at most 195 nM; in the assay on A2780 cells it was under 677 nM.

`O=C(CN1CCOCC1)N1CCN(Cc2ccc3c(c2)CCN(C(=O)COc2cccnc2)C3)CC1` [Example 17, 2-(Morpholin-4-yl)-1-[4-({2-[(pyridin-3-yloxy)acetyl]-1,2,3,4-tetrahydroisoquinolin-6-yl}methyl)piperazin-1-yl]ethanone]: the IC50 is at most 195 nM in assay [1] and under 677 nM with A2780 cells.

Regarding `CC(C)(O)CC(=O)N1CCN(Cc2ccc3c(c2)CCN(C(=O)COc2cccnc2)C3)CC1` [Example 18, 3-Hydroxy-3-methyl-1-[4-({2-[(pyridin-3-yloxy)acetyl]-1,2,3,4-tetrahydroisoquinolin-6-yl}methyl)piperazin-1-yl]butan-1-one], the results for the IC50 (in assay [1]; in the assay with A2780 cells) were at most 195 nM and under 677 nM, respectively.

With `O=C(CC1CCOCC1)N1CCN(Cc2ccc3c(c2)CCN(C(=O)COc2cccnc2)C3)CC1` [Example 19, 2-(Pyridin-3-yloxy)-1-[6-{[4-(tetrahydro-2H-pyran-4-ylacetyl)piperazin-1-yl]methyl}-3,4-dihydroisoquinolin-2(1H)-yl]ethanone], the IC50 in assay [1] is at most 195 nM; in the assay on A2780 cells, under 677 nM.
